These are literature values, as cited in US20040067256A1, “Novel modified release formulation” (priority 2001, published 2004).

For the data set the following is noted: ambient temperature of 22-25° C.

SMILES strings stand for the structures. Where two headings read alike, the source gives them in different places.

Regarding `CC(O)(CS(=O)(=O)c1ccc(F)cc1)C(=O)Nc1ccc(C#N)c(C(F)(F)F)c1` (racemic) [bicalutamide, 4′-cyano-α′,α′,α′-trifluoro-3-(4-fluorophenylsulphonyl)-2-hydroxy-2-methylpropiono-m-toluidide], the water-solubility entry (physiological pH) is “about 0.0046 mg/ml”.

On to `CCOC(=O)C1=C(C)NC(C)=C(C(=O)OC)C1c1cccc(Cl)c1Cl` (centres unmarked) [Felodipine, 2,6-dimethyl-4-(2,3-dichlorophenyl)-1,4-dihydropyridine-3,5-dicarboxylic acid-3-methyl ester-5-ethyl ester], for which the water-solubility result is “about 0.5 μg/ml”.
